From US6465196B1, “Drug screen for identifying an agent that modulates low density lipoprotein receptor adaptin-ligand binding” (Board of Regents, The University of Texas System, priority 2001, dated 2002) come the findings set out here.

The first data set concerns the target T1, GST-PTB domain fusion protein (Homo sapiens, UniProt Q5SW96).
T1 construct: made in house
T1 sequence (Q5SW96 48-175): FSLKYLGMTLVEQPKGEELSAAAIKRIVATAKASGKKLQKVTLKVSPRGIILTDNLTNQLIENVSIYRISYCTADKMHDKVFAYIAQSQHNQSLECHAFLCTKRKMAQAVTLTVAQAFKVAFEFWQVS
As to the kind of experiment: Fluorescence polarization binding of fluorescent LDLR peptide probe to the PTB domain. The note with it: after 5 min at 4° C. As for the experimental part:
Peptide binding to the GST-PTB domain fusion protein is measured by using fluorescence polarization (also known as fluorescence anisotropy; Li, et al. 1997 Proc. Natl. Acad. Sci. USA 94:7204-7209) is a protocol adapted from Howell et al. 1999 Mol Cell Biol 19, 5179-5188. A16-mer LDLR peptide (acetyl-SINFDNPVYQKTTEDE-amide, residues 820-835 of SEQ ID NO:8) and its phosphorylated analog (phosphate on the tyrosine) are synthesized with an AMS 222 Multiple Peptide Synthesizer using TenetaGel S resin (Rapp Polymere) and purified by high-pressure liquid chromatography. Peptide concentrations are determined by spectrophotometry and confirmed by amino acid analysis. […] Reactions are stopped with 5 μmol of Tris HCl (pH 8.0) and analyzed by thin-layer chromatography (Silica gel 60; methanol-acetic acid-water [4:1:1]). […] Based on fluorescence intensity, the fluorescent peptide (probe) concentration in binding reaction mixtures was estimated to be 20 nM.
Binding measurements are performed in a Beacon 2000 Variable Temperature Fluorescence Polarization System (PanVera Corporation). Essentially, a constant concentration of fluorescent probe peptide is incubated with various concentrations of the GST-PTB domain or GST in 100 μl of 0.5% Triton X-100-20 mM glutathione-200 mM Tris HCl (pH 8.0) at 4° C. and fluorescence polarization is measured. […]
(In general: In fluorescence polarisation assays a small probe gives low polarisation when free and higher when bound to something large.)
For the substance “acetyl-SINFDNPVYQKTTEDE-amide (Ac-SINFDNPVYQKTTEDE-NH2; also: fluorescein-C6 label, site not given here) [fluorescent probe peptide]”, the “Binding, percent of maximum” value is given as 95%.

Still in this data set, the particulars now being: linear Hill plot, noncooperative binding.
Substance “acetyl-SINFDNPVYQKTTEDE-amide (Ac-SINFDNPVYQKTTEDE-NH2; also: fluorescein-C6 label, site not given here) [fluorescent probe peptide]” yielded a Hill plot slope of 1.0.

The subject of a further data set is a strand of SEQ ID NO:1. Nature of the data set: Specific hybridization of LDLR adaptin domain-encoding polynucleotides under stringent conditions. Also on record: key: +: hybridize with a strand of SEQ ID NO:1 under Conditions I and/or II. The format is binding, human. The note with it: CC domain encoding polynucleotides; Conditions I and/or II. The text has this: These natural sequence LDLR adaptin polynucleotides provide hybridization probes and replication/amplification primers having a disclosed LDLR adaptin domain encoding cDNA sequence or fragments thereof sufficient to effect specific hybridization thereto. Such primers or probes are at least 12, preferably at least 24, more preferably at least 36 and most preferably at least 96 bases in length.
As for “SEQ ID NO:1, nucleotides 801-828: LDLR adaptin CC domain encoding polynucleotide (DNA AAACCCTCAGGTCCTGGACACTGGCCTG; chemistry not given here)”, the Hybridization result is “+”.
Regarding “SEQ ID NO:1, nucleotides 784-809: LDLR adaptin CC domain encoding polynucleotide (DNA CTTGCCCAGTCTCGGACAAACCCTCA; chemistry not given here)”, the Hybridization entry is “+”.
Still for that read-out and setting: to “SEQ ID NO:1, nucleotides 775-789: LDLR adaptin CC domain encoding polynucleotide (DNA TTTTCGAGGCTTGCC; chemistry not given here)” belongs “+”; to “SEQ ID NO:1, nucleotides 742-770: LDLR adaptin CC domain encoding polynucleotide (DNA GTCTGGGAGCTGGATGATGGCCTGGATGA; chemistry not given here)”, “+”.
As to “SEQ ID NO:1, nucleotides 799-824: LDLR adaptin CC domain encoding polynucleotide (DNA ACAAACCCTCAGGTCCTGGACACTGG; chemistry not given here)”, the Hybridization entry is reported as “+”.

The same data set, now with this note: PTB domain encoding polynucleotides; Conditions I and/or II.
Take “SEQ ID NO:1, nucleotides 491-511: LDLR adaptin PTB domain encoding polynucleotide (DNA CCTTCAAAGTCGCCTTTGAGT; chemistry not given here)”: the Hybridization result is given as “+”.
For “SEQ ID NO:1, nucleotides 263-286: LDLR adaptin PTB domain encoding polynucleotide (DNA TGACTCTGAAGGTGTCGCCACGGG; chemistry not given here)”, the Hybridization entry is listed as “+”.
“SEQ ID NO:1, nucleotides 249-272: LDLR adaptin PTB domain encoding polynucleotide (DNA GAAGCTGCAGAAGGTGACTCTGAA; chemistry not given here)”: the Hybridization entry was “+”.
Take “SEQ ID NO:1, nucleotides 442-465: LDLR adaptin PTB domain encoding polynucleotide (DNA TGCACCAAGCGGAAGATGGCACAG; chemistry not given here)”: the Hybridization entry is recorded as “+”.
Take “SEQ ID NO:1, nucleotides 417-440: LDLR adaptin PTB domain encoding polynucleotide (DNA GAGCCTCGAGTGCCACGCCTTCCT; chemistry not given here)”: the Hybridization entry was “+”.
With “SEQ ID NO:1, nucleotides 185-218: LDLR adaptin PTB domain encoding polynucleotide (DNA AGGGTGAGGAGCTGTCGGCCGCCGCCATCAAGAG; chemistry not given here)”, the Hybridization entry is “+”.
Turning to “SEQ ID NO:1, nucleotides 511-525: LDLR adaptin PTB domain encoding polynucleotide (DNA TTTTGGCAGGTGTCC; chemistry not given here)”, the Hybridization entry is given as “+”.
Consider “SEQ ID NO:1, nucleotides 369-392: LDLR adaptin PTB domain encoding polynucleotide (DNA GATGCACGACAAGGTGTTTGCATA; chemistry not given here)”, for which the Hybridization entry is recorded as “+”.
The same measure, in the same setting: to “SEQ ID NO:1, nucleotides 297-320: LDLR adaptin PTB domain encoding polynucleotide (DNA GACAGACAACCTCACCAACCAGCT; chemistry not given here)” belongs “+”; to “SEQ ID NO:1, nucleotides 393-416: LDLR adaptin PTB domain encoding polynucleotide (DNA CATCGCCCAGAGCCAGCACAACCA; chemistry not given here)”, “+”; to “SEQ ID NO:1, nucleotides 321-344: LDLR adaptin PTB domain encoding polynucleotide (DNA CATTGAGAACGTGTCCATATACAG; chemistry not given here)”, “+”.
As to “SEQ ID NO:1, nucleotides 345-368: LDLR adaptin PTB domain encoding polynucleotide (DNA GATCTCCTATTGCACAGCAGACAA; chemistry not given here)”, the Hybridization result is given as “+”.
On to “SEQ ID NO:1, nucleotides 142-164: LDLR adaptin PTB domain encoding polynucleotide (DNA TTCAGCCTCAAGTACCTGGGCAT; chemistry not given here)”, for which the Hybridization result is on record as “+”.
